Legend:
human VEGFA locus = format: cell-based; conditions: for VEGF concentration, empty vector control cells in respective drug (average): HEK293A, 48 hrs, average of 3 independent experiments
HCV genotype 1a NS3 Q80K = conditions: in vitro replication assay; cited from earlier work
HCV genotype 1a NS3 T54A = conditions: in vitro replication assay; cited from earlier work
HCV genotype 1a NS3 V36M = conditions: in vitro replication assay; cited from earlier work
HCV genotype 1a NS3 Wt = conditions: in vitro replication assay; cited from earlier work
[1] = test system: HCV genotype 1a NS3 S122G; conditions: in vitro replication assay; cited from earlier work
[2] = test system: HCV genotype 1a NS3 D168Y; conditions: in vitro replication assay; cited from earlier work
[3] = test system: HCV genotype 1a NS3 S122R; conditions: in vitro replication assay; cited from earlier work
HCV genotype 1a NS3 F43L = conditions: in vitro replication assay; cited from earlier work

SMILES | VEGF amounts in the culture medium (human VEGFA locus; HEK293A co-transfected with ZF-StaPL(ti)-tdRFP-KRAB and ZF-StaPL(ai)-YFP-VPR) | VEGF concentration, empty vector control cells in respective drug (average) (human VEGFA locus) [pg/mL] | EC50 (HCV genotype 1a NS3 Q80K) [nM] | EC50 (HCV genotype 1a NS3 T54A) [nM] | EC50 (HCV genotype 1a NS3 V36M) [nM] | EC50 (HCV genotype 1a NS3 Wt) [nM] | EC50 [1] [nM] | EC50 [2] [nM] | EC50 [3] [nM] | EC50 (HCV genotype 1a NS3 F43L) [nM]
C=C[C@@H]1C[C@]1(NC(=O)[C@@H]1C[C@@H](Oc2ncc(OC)c3ccc(Cl)cc23)CN1C(=O)[C@@H](NC(=O)OC(C)(C)C)C(C)(C)C)C(=O)NS(=O)(=O)C1CC1 [ASV, asunaprevir] | increased | 673 | 2.5 | 0.33 | 1.5 | 0.76 | 0.65 | 473 | 2.6 | 2.7
CCC[C@H](NC(=O)[C@@H]1[C@H]2CCC[C@H]2CN1C(=O)[C@@H](NC(=O)[C@@H](NC(=O)c1cnccn1)C1CCCCC1)C(C)(C)C)C(=O)C(=O)NC1CC1 [TPV, telaprevir] |  | 930 |  |  |  |  |  |  |  | 
